Earlier results, collected in paper PMC5111365 (The Analyst, 2016).
No end group written: not given here. *: point of attachment. 5FAM = O=C1OC2(c3ccc(O)cc3Oc3cc(O)ccc32)c2ccc(C(=O)*)cc21

Tests used:
[1] = 3 mg mL^-1 total protein, data from previous work
[2] = molecular target: Abl-1 human recombinant protein (Homo sapiens, UniProt P00519); settings: 12 nM kinase; data from previous work
Chain of Abl-1 human recombinant protein (P00519 whole entry): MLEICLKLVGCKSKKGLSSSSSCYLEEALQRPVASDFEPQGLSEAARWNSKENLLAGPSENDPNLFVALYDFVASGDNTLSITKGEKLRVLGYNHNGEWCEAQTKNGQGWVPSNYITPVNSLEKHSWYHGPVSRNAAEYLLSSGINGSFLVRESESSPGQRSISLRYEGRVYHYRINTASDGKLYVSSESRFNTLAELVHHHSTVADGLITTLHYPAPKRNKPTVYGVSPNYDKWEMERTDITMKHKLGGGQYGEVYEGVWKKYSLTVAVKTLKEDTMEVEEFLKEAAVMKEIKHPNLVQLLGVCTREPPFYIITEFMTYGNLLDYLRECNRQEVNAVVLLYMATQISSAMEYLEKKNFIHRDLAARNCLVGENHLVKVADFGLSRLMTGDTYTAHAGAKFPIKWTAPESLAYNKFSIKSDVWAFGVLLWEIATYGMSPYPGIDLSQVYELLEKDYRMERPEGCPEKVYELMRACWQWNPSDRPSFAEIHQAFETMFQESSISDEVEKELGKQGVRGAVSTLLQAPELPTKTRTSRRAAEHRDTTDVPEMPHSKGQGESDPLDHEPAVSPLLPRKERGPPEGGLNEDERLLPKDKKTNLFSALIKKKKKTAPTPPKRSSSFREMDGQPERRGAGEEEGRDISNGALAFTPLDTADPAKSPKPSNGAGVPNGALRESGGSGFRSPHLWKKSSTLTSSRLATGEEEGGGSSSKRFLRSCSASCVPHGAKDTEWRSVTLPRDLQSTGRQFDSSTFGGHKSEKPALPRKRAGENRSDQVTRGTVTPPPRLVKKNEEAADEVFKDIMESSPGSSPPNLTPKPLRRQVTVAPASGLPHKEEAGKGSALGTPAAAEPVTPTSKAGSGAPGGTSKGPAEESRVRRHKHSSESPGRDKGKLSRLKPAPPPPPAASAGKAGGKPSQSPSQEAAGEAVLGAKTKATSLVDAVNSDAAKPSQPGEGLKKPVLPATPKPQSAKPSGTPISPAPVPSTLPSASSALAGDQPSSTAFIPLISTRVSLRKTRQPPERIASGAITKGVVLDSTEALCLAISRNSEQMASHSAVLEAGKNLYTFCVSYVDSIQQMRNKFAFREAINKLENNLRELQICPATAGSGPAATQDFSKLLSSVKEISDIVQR

5FAM-GGAYAAPFKKKA [III-67B]
t1/2, time at which 50% of the peptide was degraded in the cytosolic lysate [1]: 1.3 min
t50% P, time required for 50% of the peptide to be phosphorylated by Abl-1 kinase [2]: 190 min
